Broadly, the IC50 is the point on the concentration scale where inhibition reaches its midpoint.

The structures appear in SMILES notation. Bridge positions count the residues as written; N and C are the ends. Square brackets hold non-standard residues; d marks the D form. Peptide text beside a SMILES is read from it. S5 = C=CCCC[C@](C)(N)C(=O)O

These results are taken from US8933019B2, “Antiviral cell-penetrating peptides” (priority 2008, dated 2015).

The nature of data set [1]: Solubility, observation in the Jurkat cytotoxicity test. The data set is classed as physicochemical. On the procedure: (§1) Cytotoxicity was also evaluated in Jurkat cells using a Promega LDH leakage detection kit. Jurkat cells were plated at 10^4 cells/well in a volume of 200 μl. The test was performed after 30 min, 2 hr and 4 hr of exposure to the NYAD-201, NYAD-202 and NYAD-203 compounds.

Data set [2] deals with HIV-1 92US657. Briefly: Inhibition of primary HIV-1 isolate, p24 ELISA, PBMC. The class given is cell-based. The conditions noted are these: subtype B, coreceptor R5, read-out: IC50 (μM ± SD), HIV-1 92US657. The method, then: (§2) The inhibitory activity of peptides on infection by primary HIV-1 isolates was determined as previously described (Jiang et al., Antimicrob. Agents Chemother. 48:4349-4359, 2004). Peripheral blood mononuclear cells (PBMCs) were isolated from the blood of healthy donors at the New York Blood Center by standard density gradient centrifugation using Histopaque-1077 (Sigma-Aldrich). The cells were cultured at 37° C. for 2 hr. Nonadherent cells were collected and resuspended at 5×10^6 cells/ml RPMI-1640 medium containing 10% FBS, 5 μg/ml PHA, and 100 U/ml IL-2 (Sigma-Aldrich), followed by incubation at 37° C. for 3 days. The PHA-stimulated cells (5×10^4 cells/well) were infected with primary HIV-1 isolates at 500 TCID50 (0.01 MOI) in the absence or presence of peptide inhibitor at graded concentrations. Culture media were changed every 3 days and replaced with fresh media containing freshly prepared inhibitor. The supernatants were collected 7 days post-infection and tested for p24 antigen by ELISA (FIG. 6). The percent inhibition of p24 production, IC50 and IC90 values were calculated by the GraphPad Prism software (GraphPad Software Inc.).
(§3) NYAD-201, NYAD-202 and NYAD-203 were also tested against a set of primary HIV-1 isolates in PBMC representing mostly group M and one from group O with diverse coreceptor usage. […] The inhibitory activities of the peptides against this diverse range of primary isolates were similar, indicating its effectiveness against a wide range of HIV-1 isolates.
On the technique in general: An ELISA detects its analyte on a solid surface through an enzyme-linked reagent.

Data set [3] concerns HIV-1 93RW024. The description is as above. The data set is classed as cell-based. The conditions noted are these: subtype A, coreceptor R5X4, read-out: IC50 (μM ± SD), HIV-1 93RW024. On the procedure: as §2, §3
Data set [4] relates to HIV-1 93BR020. Described as above. The data set is classed as cell-based. To be noted: subtype F, coreceptor R5X4, read-out: IC50 (μM ± SD), HIV-1 93BR020. The method, then:
as §2, §3

For data set [5], the system named is HIV-1 92UG029. The description is as above. To be noted: subtype A, coreceptor X4, read-out: IC50 (μM ± SD), HIV-1 92UG029. The class given is cell-based. The method, then:
as §2, §3

The subject of data set [6] is HIV-1 93IN101. The data set is described as above. The class given is cell-based. The conditions noted are these: subtype C, coreceptor R5, read-out: IC50 (μM ± SD), HIV-1 93IN101. The method, then:
as §2, §3

The test system of data set [7] is HIV-1 RU570. The data set is described as above. The data set is classed as cell-based. The conditions noted are these: subtype G, coreceptor R5, read-out: IC50 (μM ± SD), HIV-1 RU570. On the procedure:
as §2, §3

Data set [8] relates to HIV-1 CMU02. The description is as above. The class given is cell-based. The conditions noted are these: subtype EA, coreceptor X4, read-out: IC50 (μM ± SD), HIV-1 CMU02. On the procedure:
as §2, §3

The subject of data set [9] is HIV-1 98CN009. The data set is described as above. The data set is classed as cell-based. The conditions noted are these: subtype C, coreceptor R5, read-out: IC50 (μM ± SD), HIV-1 98CN009. On the procedure:
as §2, §3

For data set [10], the system named is HIV-1 BCF02. The description is as above. The data set is classed as cell-based. To be noted: (Group 0), coreceptor R5, read-out: IC50 (μM ± SD), HIV-1 BCF02. The method, then:
as §2, §3

The subject of data set [11] is HIV-1 IIIB. In words: Release and infectivity of HIV-1 virus released from infected MT-2 cells after treatment. The data set is classed as cell-based. The conditions noted are these: lower dose 6.25 μg/ml, normalized for p24, TCID50. The method, then:
On the fourth day post-infection, the supernatants were collected and filtered with a 0.45 μm PVDF membrane. One aliquot of the supernatants from each sample was mixed 1:1 with a solution of 5% Triton X-100 for p24 quantification, and stored at 4° C., another aliquot was immediately frozen at −80° C. and used to compare the infectivity of the viral particles released by NYAD-201 and NYAD-202 treated cells to the viral particles released by untreated cells. The protein p24 was first quantified by sandwich-ELISA, then the viral samples were normalized for the p24 content and titered to calculate the TCID50. MT-2 cells were infected with a two fold dilutions of virus from NYAD-201 and NYAD-202 treated and untreated cells. […] On the fourth day post infection supernatants were collected for p24 quantification by sandwich-ELISA and the TCID50 was calculated by the Spearman-Karber statistical method. […]
For these reasons, not only the quantity but also the quality of the viral particles released in the supernatant was evaluated. First, the p24/viral particles released in the supernatant following NYAD-201 and NYAD-202 treatment were quantified, then starting with the same amount of p24 per sample, the viruses released in the supernatant were titered. The TCID50 was calculated and expressed as percentage infectivity with respect to the untreated positive control. […]

In data set [12] the test system is HIV-1 89.6. The data set is classed as cell-based. To be noted: laboratory strain, subtype B, PBMC, coreceptor R5X4; read-out: IC50 (μM ± SD), HIV-1 89.6. On the procedure:
as §2
(§4) In addition, NYAD-201, NYAD-202 and NYAD-203 were also tested using several laboratory-adapted and primary isolates in MT-2 cells and PBMC (peripheral blood mononuclear cells), respectively. The inhibition of p24 production in MT-2 cells by NYAD-201 and its analogs were measured over a range of concentrations and the concentration required to inhibit 50% (IC50) of the p24 production was calculated. […] NYAD-201 and its analogs inhibited the laboratory strains with low μM potency (IC50˜2-8 μM), and both R5- and X4-tropic viruses were inhibited with similar potency.

In data set [13] the test system is HIV-1 BaL. The data set is classed as cell-based. The conditions noted are these: laboratory strain, subtype B, PBMC, coreceptor R5; read-out: IC50 (μM ± SD), HIV-1 BaL. On the procedure: as §2, §4
The test system of data set [14] is Jurkat cells. Briefly: Cytotoxicity, LDH leakage, Jurkat cells. The conditions noted are these: 30 min, 2 hr and 4 hr of exposure. The class given is cell-based. The method, then: as §1

With `CSCC[C@@H]1NC(=O)[C@H](Cc2c[nH]c3ccccc23)NC(=O)[C@@](C)(NC(=O)[C@H](CCCCN)NC(=O)[C@@H](NC(=O)[C@H](CCC(=O)O)NC(=O)[C@H](CCC(N)=O)NC(=O)[C@H](C)N)C(C)C)CCCC=CCCC[C@@](C)(C(=O)N[C@H](C(=O)N[C@@H](CC(C)C)C(=O)N[C@@H](CC(C)C)C(=O)N[C@H](C(=O)N[C@@H](C)C(N)=O)C(C)C)[C@@H](C)O)NC(=O)[C@H]([C@@H](C)O)NC1=O` [NYAD-201, AQEVKXWMTXTLLVA] (H-AQEVK[S5]WMT[S5]TLLVA-NH2; staple 6-10), the Solubility result in data set [1] is “not very soluble”. Also, the 50% inhibitory concentration (IC50) worked out at 6.72 ± 0.98 µM in [2]; 9.88 ± 0.3 µM in data set [3]; 2.78 ± 0.57 µM in [4]; 7.88 ± 1.01 µM in [5]; 1.58 ± 0.57 µM in [6]; 7.48 ± 1.21 µM in data set [7]. Also, the IC50 in data set [8] stood at 7.36 ± 0.69 µM; in data set [9] it was 5.31 ± 0.83 µM; in [10], 15.8 ± 3.43 µM; in data set [12], 5.21 ± 0.87 µM; in [13], 4.73 ± 1.92 µM. Also, the “Percentage infectivity of virus produced by treated cells with respect to untreated control” value in [11] is reported as 50%. In addition, the “Cytotoxicity in Jurkat cells (LDH leakage)” value in data set [14] is “did not demonstrate toxicity”.
